Reference: patent US6469013B2, “Therapeutic compounds” (Parker Hughes Institute, priority 1998, dated 2002)
Read-outs that look alike come from different tables or passages of the source. Values belong to the molecule of their own block, whether it stands above or below them.

Assays:
[1] = target: T1, human JAK3 (Homo sapiens, UniProt P52333); assay: JAK3 immune complex kinase assay (JAK3 immunoprecipitated from KL2 EBV-transformed B cell line); assay type: biochemical
T1 sequence (P52333 1-1124): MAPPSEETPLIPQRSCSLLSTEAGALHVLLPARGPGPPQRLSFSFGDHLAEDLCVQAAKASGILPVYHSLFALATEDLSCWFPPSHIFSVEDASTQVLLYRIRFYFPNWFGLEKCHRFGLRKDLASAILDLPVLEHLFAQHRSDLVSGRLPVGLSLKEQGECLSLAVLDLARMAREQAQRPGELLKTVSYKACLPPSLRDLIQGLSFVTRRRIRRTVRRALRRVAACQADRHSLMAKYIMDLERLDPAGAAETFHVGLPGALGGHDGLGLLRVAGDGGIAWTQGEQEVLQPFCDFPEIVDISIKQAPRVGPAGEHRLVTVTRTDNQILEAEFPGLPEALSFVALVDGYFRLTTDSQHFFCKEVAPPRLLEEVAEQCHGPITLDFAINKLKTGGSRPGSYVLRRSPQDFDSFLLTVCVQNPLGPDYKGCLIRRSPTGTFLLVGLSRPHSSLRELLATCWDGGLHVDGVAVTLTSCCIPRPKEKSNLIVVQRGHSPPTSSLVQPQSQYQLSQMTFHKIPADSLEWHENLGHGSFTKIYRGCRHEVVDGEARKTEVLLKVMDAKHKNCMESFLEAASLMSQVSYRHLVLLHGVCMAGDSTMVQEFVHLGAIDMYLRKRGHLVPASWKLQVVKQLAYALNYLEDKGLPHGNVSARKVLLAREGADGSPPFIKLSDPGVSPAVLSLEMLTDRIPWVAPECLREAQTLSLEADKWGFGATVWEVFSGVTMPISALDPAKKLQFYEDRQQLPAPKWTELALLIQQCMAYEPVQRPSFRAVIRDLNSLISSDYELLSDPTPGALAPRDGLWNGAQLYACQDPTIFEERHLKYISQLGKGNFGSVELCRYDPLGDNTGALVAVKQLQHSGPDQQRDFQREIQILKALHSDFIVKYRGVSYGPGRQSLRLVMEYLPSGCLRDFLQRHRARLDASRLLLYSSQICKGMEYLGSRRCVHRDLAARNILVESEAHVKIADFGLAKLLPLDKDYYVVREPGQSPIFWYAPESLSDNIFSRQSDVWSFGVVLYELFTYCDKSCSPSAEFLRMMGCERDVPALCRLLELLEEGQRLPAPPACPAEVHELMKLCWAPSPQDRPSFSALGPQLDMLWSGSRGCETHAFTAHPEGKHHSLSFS
Description: (§1) In JAK3 immune complex kinase assays (17, 22), KL-2 EBV-transformed human lymphoblastoid B cells (native JAK3 kinase assays) or insect ovary cells (recombinant JAK3 kinase assays) were lysed with NP-40 lysis buffer (50 mM Tris, pH 8, 150 mM NaCl, 5 mM EDTA, 1% NP-40, 100 μM sodium orthovanadate, 100 μM sodium molybdate, 8 μg/ml aprotinin, 5 μg/ml leupeptin, and 500 μM PMSF) and centrifuged 10 min at 13000× g to remove insoluble material. Samples were immunoprecipitated with antisera prepared against JAK3. The antisera were diluted and immune complexes collected by incubation with 15 μl protein A Sepharose. After 4 washes with NP-40 lysis buffer, the protein A Sepharose beads were washed once in kinase buffer (20 mM MOPS, pH7, 10 mM MgCl2) and resuspended in the same buffer. Reactions were initiated by the addition of 25 μCi [γ^32P] ATP (5000 Ci/mMole) and unlabeled ATP to a final concentration of 5 μM. Reactions were terminated by boiling for 4 min in SDS sample buffer. Samples were run on 9.5% SDS polyacrylamide gels and labeled proteins were detected by autoradiography. Following electrophoresis, kinase gels were dried onto Whatman 3M filter paper and subjected to phosphorimaging on a Molecular Imager (Bio-Rad, Hercules, Calif.) as well as autoradiography on film. For each drug concentration, a kinase activity index (KA) was determined by comparing the kinase activity in phosphorimager units (PIU) to that of the baseline sample. In some experiments, cold kinase assays were performed, as described by (Uckun, F. M., et al., Clin. Can. Res. 4: 901-912, 1998).
We first used immune complex kinase assays to compare the effects of the synthesized dimethoxyquinazoline compounds on the enzymatic activity of human JAK3 immunoprecipitated from the KL2 EBV-transformed human lymphoblastoid B cell line.

[2] = target: T2, recombinant murine JAK3 (Mus musculus, UniProt Q62137); assay: Recombinant JAK3 immune complex kinase assay (baculovirus, Sf21); assay type: biochemical
T2 sequence (Q62137 1-1100): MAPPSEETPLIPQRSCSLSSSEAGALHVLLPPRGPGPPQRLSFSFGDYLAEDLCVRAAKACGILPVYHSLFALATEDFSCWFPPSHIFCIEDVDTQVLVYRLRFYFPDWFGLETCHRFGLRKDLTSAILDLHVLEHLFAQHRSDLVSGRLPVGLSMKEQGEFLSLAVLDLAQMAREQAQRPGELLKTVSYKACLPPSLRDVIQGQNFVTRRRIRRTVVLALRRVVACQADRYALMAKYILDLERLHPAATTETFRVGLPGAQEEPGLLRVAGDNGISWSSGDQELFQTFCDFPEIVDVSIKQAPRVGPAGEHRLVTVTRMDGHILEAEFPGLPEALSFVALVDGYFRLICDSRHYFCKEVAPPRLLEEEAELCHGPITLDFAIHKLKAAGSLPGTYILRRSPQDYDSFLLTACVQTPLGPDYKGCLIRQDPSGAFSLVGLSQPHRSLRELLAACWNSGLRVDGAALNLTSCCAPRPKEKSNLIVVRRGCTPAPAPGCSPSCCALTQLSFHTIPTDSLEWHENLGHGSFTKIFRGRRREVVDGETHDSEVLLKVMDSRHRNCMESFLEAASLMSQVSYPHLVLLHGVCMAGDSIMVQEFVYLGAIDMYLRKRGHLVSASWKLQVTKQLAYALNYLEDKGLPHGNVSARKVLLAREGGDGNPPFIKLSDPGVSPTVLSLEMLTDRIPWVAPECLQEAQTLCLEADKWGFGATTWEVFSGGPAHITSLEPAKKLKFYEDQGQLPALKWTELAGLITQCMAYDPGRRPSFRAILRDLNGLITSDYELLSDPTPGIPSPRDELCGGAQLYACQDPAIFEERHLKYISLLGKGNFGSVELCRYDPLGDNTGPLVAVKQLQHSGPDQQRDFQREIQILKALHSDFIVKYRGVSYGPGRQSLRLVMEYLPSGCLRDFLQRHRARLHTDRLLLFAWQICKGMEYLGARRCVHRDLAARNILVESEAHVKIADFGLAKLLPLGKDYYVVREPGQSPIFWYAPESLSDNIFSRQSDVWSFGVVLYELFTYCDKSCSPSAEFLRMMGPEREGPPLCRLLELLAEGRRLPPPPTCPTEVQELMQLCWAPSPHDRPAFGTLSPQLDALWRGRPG
Description: Sf21 (IPLB-SF21-AE) cells (Vassilev, A., et al., J. Biol. Chem. 274: 1646-1656, 1999) derived from the ovarian tissue of the fall armyworm Spodotera frugiperda, were obtained from Invitrogen (Carlsbad, Calif.) and maintained at 26-28° C. in Grace's insect cell medium supplemented with 10% FBS and 1.0% antibiotic/antimycotic (GIBCO-BRL). Stock cells were maintained in suspension at 0.2-1.6×10^6/ml in 600 ml total culture volume in 1 L Bellco spinner flasks at 60-90 rpm. Cell viability was maintained at 95-100% as determined by trypan blue dye exclusion. Sf21 cells were infected with a baculovirus expression vector for BTK, SYK, JAK1, JAK2, or JAK3. Cells were harvested, lysed (10 MM Tris pH7.6, 100 mM NaCl, 1% Nonidet P40, 10% glycerol, 50 mM NaF, 100 μM Na3VO4, 50 μg/ml phenylmethylsulfonyl fluoride, 10 μg/ml aprotonin, 10 μg/ml leupeptin), the kinases were immunoprecipitated from the lysates, and their enzymatic activity assayed, as reported (Vassilev, A., et al., J. Biol. Chem. 274: 1646-1656, 1999; Uckun, F. M., et al., Science. 22: 1096-1100, 1996; Goodman, P. A., et al., J. Biol. Chem. 273: 17742-48, 1998; Mahajan, S., et al., Mol. Cell. Biol. 15: 5304-11, 1995; and Uckun, F. M., et al., Science. 267: 886-91, 1995). The immunoprecipitates were subjected to Western blot analysis as previously described (Vassilev, A., et al., J. Biol. Chem. 274: 1646-1656, 1999; and Uckun, F. M., et al., Science. 22: 1096-1100, 1996).
as §1, with “Following electrophoresis, kinase gels were dried onto Whatman 3M filter paper and subjected to phosphorimaging on a Molecular Imager (Bio-Rad, Hercules, Calif.) as well as autoradiography on film.” left out, “In some experiments, cold kinase assays were performed, as described by (Uckun, F. M., et al., Clin. Can. Res. 4: 901-912, 1998).” left out

[3] = JAK3 kinase assay, KL2 cell-derived human JAK3, read-out: IC50

SMILES: COc1cc2ncnc(Nc3cccc(Br)c3)c2cc1OC [WHI-P79]
IC50 [1, 3]: > 300 µM

SMILES: COc1cc2ncnc(Nc3cc(Br)c(O)c(Br)c3)c2cc1OC [WHI-P97, 4-(3′,5′-dibromo-4′-hydroxyl-phenyl)-amino-6,7-dimethoxyquinazoline]
IC50 [1, 3]: 11 µM

SMILES: COc1cc2ncnc(Nc3ccccc3O)c2cc1OC [WHI-P132]
IC50 [1]: > 300 µM
activity against JAK3 (in words) ([1]; biological assays): inactive against JAK3

SMILES: COc1cc2ncnc(Nc3ccccc3)c2cc1OC [WHI-P258, 4-(phenyl)-amino-6,7-dimethoxyquinazoline]
IC50 [1, 3]: > 300 µM

Other lines, results leading:

melting point: 225 to 228 °C
IC50 [1, 3]: > 300 µM
SMILES: COc1cc2ncnc(Nc3ccc(C)c(Br)c3)c2cc1OC [WHI-P111]

melting point: 245 °C (dec.)
SMILES: COc1cc2ncnc(Nc3ccc(O)c(Cl)c3)c2cc1OC [WHI-P197]

IC50 ([2]; recombinant murine JAK3): 128 µM
IC50 ([2]; recombinant murine JAK3, converted from μg/ml): ~128 µM
SMILES: COc1cc2ncnc(Nc3ccc(O)c(Br)c3)c2cc1OC [WHI-P154, 4-(3′bromo4′-hydroxyl-phenyl)-amino-6,7-dimethoxyquinazoline]
